In patent US20260000620A1, “ORAL DOSAGE FORMS” (priority 2022, published 2026):
Positions of bridges follow the written chain, without caps; N, C: chain ends. Residues, ends and D or L forms follow the SMILES beside them.

Experiments:
[1] = dog, in vivo, iv
Procedure: (§1) A dog PK study with terlipressin capsules was carried out essentially as described in Example 2. The key differences are as follows:
(§2) Test article administration: Animals were fasted for at least 12 hours prior to dosing and through the first 4 hours of blood sample collection (food was returned within 30 minutes following collection of the last blood sample at the 4 hour collection interval).
(§3) Intravenous administration: Animals in Phase 1 (groups 1 and 2) received a single iv of glypressin of 0.04 or 0.2 mg terlipressin base (0.24 or 1.2 mL/animal, respectively). Dosing was performed by 1 minute slow injection via the cephalic vein, using a catheter.
(§4) Blood collection: Blood samples (approximately 3 mL/sample) were collected from the jugular vein in the following time points:
(§5) Blood samples were placed into tubes containing K2EDTA. The samples were centrifuged under refrigerated (2 to 8° C.) conditions within 30 minutes of sample collection and the resulting plasma was separated and split into two approximately equal aliquots. Each plasma sample was placed into pre-chilled tubes that were placed on dry ice until frozen at −60° to −90° C. Bioanalysis was performed for plasma concentrations of both terlipressin and LVP.
(§6) Bioanalysis of plasma samples was performed using a LC-MS/MS method for quantitation of terlipressin and [Lys8]—Vasopressin in Dog Plasma.

in vivo = settings: beagle, dog, iv
Procedure: as §1, §2, §3, §4, §5, §6

increase of both LVP AUCs from 0.04 mg to 0.2 mg [1]: 3.7 fold
AUC(0-inf) (in vivo; 0.04 mg): 1.77 ng·h/mL
AUC(0-t) (in vivo; 0.04 mg): 1.82 ng·h/mL
Cmax (in vivo; 0.04 mg): 12.6 ng/mL
Tmax (in vivo; 0.04 mg): 4.98 min
half-life (in vivo; 0.04 mg): 4.44 min
AUC(0-inf) (in vivo; 0.2 mg): 9.14 ng·h/mL
AUC(0-t) (in vivo; 0.2 mg): 9.13 ng·h/mL
Cmax (in vivo; 0.2 mg): 59.1 ng/mL
Tmax (in vivo; 0.2 mg): 4.02 min
half-life (in vivo; 0.2 mg): 13.9 min
SMILES: NCCCC[C@H](NC(=O)[C@@H]1CCCN1C(=O)[C@@H]1CSSC[C@H](NC(=O)CNC(=O)CNC(=O)CN)C(=O)N[C@@H](Cc2ccc(O)cc2)C(=O)N[C@@H](Cc2ccccc2)C(=O)N[C@@H](CCC(N)=O)C(=O)N[C@@H](CC(N)=O)C(=O)N1)C(=O)NCC(N)=O [terlipressin, triglycyl lysine vasopressin] (H-GGGCYFQNCPKG-NH2; disulfide 4-9)
